# Test results from patent US4757079A, “Anti-hypertensive piperidine compounds” (Dynamac Corporaton, priority 1986, dated 1988).
# Counter-ions that a name gives are not always drawn.
# Key:
# guinea pig ileum = experiment: anticholinergic activity on the guinea pig ileum
# cat [1] = experiment: blood pressure and heart rate in the cat (i.v.); type: in vivo
# [2] = system: peripheral muscarinic receptors; experiment: response to vagal stimulation or to exogenous acetylcholine in the cat; type: in vivo; details: 1 to 10 mg/kg i.v.
# nictitating membrane = experiment: responsiveness of the nictitating membrane to pre- or post-ganglionic stimulation in the cat; type: in vivo; details: 1 to 10 mg/kg i.v.
# neuromuscular function = experiment: neuromuscular twitch response in the cat; type: in vivo
# cat [3] = experiment: heart rate and mean blood pressure in cats pretreated with hexamethonium and atropine; type: in vivo; details: compared with absence of the blocking agents
# [4] = system: rat hemidiaphragm preparation; experiment: rat hemidiaphragm preparation, perfusate volume (vasodilatory effect)
smiles,measurement,setting,value
"CN1CCC(/C=C/c2cccc3ccccc23)CC1 [B-120, 1-methyl-4-(1-naphthylvinyl)piperidine hydrochloride]",anticholinergic activity,guinea pig ileum,essentially devoid of anticholinergic activity
same,anticholinergic potency on a relative scale vs atropine sulfate,guinea pig ileum; relative to atropine sulfate,5.5×10^-4
same,Heart Rate,"cat [1]; 5.0 mg/kg i.v., cat",90 % Control
same,Mean Blood Pressure,"cat [1]; 5.0 mg/kg i.v., cat",60 % Control
same,Pulse Pressure,"cat [1]; 5.0 mg/kg i.v., cat",110 % Control
same,Heart Rate,"cat [1]; 10.0 mg/kg i.v., cat",80 % Control
same,Mean Blood Pressure,"cat [1]; 10.0 mg/kg i.v., cat",30 % Control
same,Pulse Pressure,"cat [1]; 10.0 mg/kg i.v., cat",70 % Control
same,heart rate rhythm,"cat [1]; 50 mg/kg i.v., cat",did not show evidence of abnormal rhythm
same,Heart Rate,"cat [1]; 50.0 mg/kg i.v., cat",0 % Control
same,Mean Blood Pressure,"cat [1]; 50.0 mg/kg i.v., cat",0 % Control
same,Pulse Pressure,"cat [1]; 50.0 mg/kg i.v., cat",0 % Control
same,Heart Rate,"cat [1]; 0.5 to 50 mg/kg i.v., cat",dose-related decrease
same,Mean Blood Pressure,"cat [1]; 0.5 to 50 mg/kg i.v., cat",dose-related decrease
same,diastolic versus systolic blood pressure,"cat [1]; 0.5 to 50 mg/kg i.v., cat",greater decrease in diastolic than systolic blood pressure
same,death,cat [1]; in vivo,death appeared to be caused by hypotensive crisis
same,response to exogenous acetylcholine,[2],did not alter the response
same,response to vagal stimulation,[2],did not alter the response
same,responsiveness of the nictitating membrane to pre- or post-ganglionic stimulation,nictitating membrane,did not diminish the responsiveness
same,neuromuscular twitch response,neuromuscular function,no significant decrease
same,reduction in heart rate,cat [3],comparable to that induced in the absence of the blocking agents
same,reduction in mean blood pressure,cat [3],comparable to that induced in the absence of the blocking agents
same,increase in perfusate volume,[4]; 17.5 mg/L,not significant
same,perfusate volume after removal of the B-120,[4]; after 35 mg/L,returned to normal
